Tests used:
[1] = tested on: COS-7 cells expressing SCAT3.1 (caspase-3 cleavage site); experiment: A-FRET microscopy of SCAT 3.1 apoptosis sensor cleavage in live cells; type: cell-based; conditions: COS-7 cells transfected with SCAT 3.1; imaged immediately after treatment and after 5 hours; FIG. 6A-C
Description: Sample Preparation. Beads from a 5 ml HiTRAP chelating HP column (Amersham Biosciences) were charged using a 0.1M NiSO (Rizzo and Piston, 2005) solution and washed with 50 mM TrisHCl. The beads were then labeled as described (Youvan et al., 1997) with purified mCerulean, mVenus, or a linker protein containing mVenus and mCerulean separated by the linker sequence […]. Histadine-tagged recombinant protein was bacterially expressed and purified as previously described (Rizzo et al., 2004). For living cell studies, plasmid DNA encoding FP constructs were introduced was into COS-7 cells using FUGENE (Roche) transfection reagent according to the manufacturer's instructions. […]
Fluorescence Imaging. […] Fluorescence emission was filtered through a 515-540 nm bandpass filter and 2 mm BGG22 glass prior to separation vertical and horizontal polarizations with a broadband polarizing cube beam splitter (Newport). […]
To test the ability of this approach to measure FRET changes in a live cell based assay, COS-7 cells were transfected with the apoptosis sensor, SCAT 3.1 (Nagai and Miyawaki, 2004), which consists of cyan and yellow FPs separated by a caspase-3 cleavage site (FIG. 6A). […] SCAT 3.1 cleavage was also monitored in cells grown on a 96-well plate. […] The use of an intrinsic parameter, such as anisotropy, enables absolute threshold values to be determined for occurrence of FRET during an assay. […]

[2] = tested on: COS-7 cells expressing SCAT3.1 (caspase-3 cleavage site); conditions: COS-7 cells expressing SCAT3.1, 96-well plate; 10 μM H2O2 for 90 min; FIG. 6D

CN[C@@H]1C[C@H]2O[C@@](C)([C@@H]1OC)n1c3ccccc3c3c4c(c5c6ccccc6n2c5c31)C(=O)NC4 [staurosporine]
emission in the yellow FP channel (polarization) following induction of apoptosis [1]: changes from highly depolarized fluorescence to highly polarized fluorescence

OO [hydrogen peroxide]
overall anisotropy in the yellow emission channel, indicating caspase-3 activation [2]: increase in the overall anisotropy

Reference: patent US8031338B2, “Measuring Forster resonance energy transfer with polarized and depolarized light” (Vanderbilt University, priority 2004, dated 2011)
